In patent publication US10927105B1 (Lundbeck La Jolla Research Center, Inc., priority 2017, dated 2021):

Biological target: MAGL (Homo sapiens (Human), UniProt Q99685)
Experiment: In vitro competitive activity-based protein profiling (human prefrontal cortex membrane fractions, FP-Rh probe), MAGL band
Settings: read-out: MAGL IC50 (μM) (human); human prefrontal cortex membrane fractions
Procedure: Biological Evaluation In Vitro Competitive Activity-Based Protein Profiling.
Proteomes (mouse brain membrane fraction for mouse assays; human prefrontal cortex membrane fractions for human assays) (50 mL, 1.0 mg/mL total protein concentration) were preincubated with varying concentrations of inhibitors at 37° C. After 30 min, FP-Rh (1.0 mL, 50 mM in DMSO) was added and the mixture was incubated for another 30 min at 37° C. Reactions were quenched with SDS loading buffer (15 μL-4×) and run on SDS-PAGE.

Chain of MAGL (Q99685 whole entry): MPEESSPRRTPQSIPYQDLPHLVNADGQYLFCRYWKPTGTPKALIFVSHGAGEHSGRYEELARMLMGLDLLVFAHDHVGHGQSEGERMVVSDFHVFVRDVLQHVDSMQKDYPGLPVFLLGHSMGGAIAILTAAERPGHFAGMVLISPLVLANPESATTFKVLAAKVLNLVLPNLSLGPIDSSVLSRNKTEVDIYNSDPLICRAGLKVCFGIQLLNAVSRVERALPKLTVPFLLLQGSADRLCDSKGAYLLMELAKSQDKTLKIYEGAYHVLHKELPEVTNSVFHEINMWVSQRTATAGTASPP

IC50, < 0.1 µM:
O=C(O)c1ccn(C(=O)N2CCN(Cc3ccc(C(F)(F)F)cc3N3CCOCC3)CC2)n1 [Example 3, 1-(4-(2-Morpholino-4-(trifluoromethyl)benzyl)piperazine-1-carbonyl)-1H-pyrazole-3-carboxylic Acid]
Cc1cc(-c2ccccc2)ccc1CN1CCN(C(=O)n2ccc(C(=O)O)n2)CC1 [Example 16, 1-(4-((3-Methyl-[1,1′-biphenyl]-4-yl)methyl)piperazine-1-carbonyl)-1H-pyrazole-3-carboxylic acid]
O=C(O)c1ccn(C(=O)N2CCN(Cc3cc(Cl)cc(Oc4ccc(Cl)cc4)c3)CC2)n1 [Example 19, 1-(4-(3-Chloro-5-(4-chlorophenoxy)benzyl)piperazine-1-carbonyl)-1H-pyrazole-3-carboxylic Acid]
NC(=O)c1ccn(C(=O)N2CCC3(CCCN3Cc3cc4ccc(C(F)(F)F)cc4s3)CC2)n1 [Example 22, 1-(1-((6-(Trifluoromethyl)benzo[b]thiophen-2-yl)methyl)-1,8-diazaspiro[4.5]decane-8-carbonyl)-1H-pyrazole-3-carboxamide]
O=C(O)c1nn(C(=O)N2CCC3(CCN(Cc4cccc(Cl)c4C(F)(F)F)C3)CC2)cc1Cl [Example 26, 4-Chloro-1-(2-(3-chloro-2-(trifluoromethyl)benzyl)-2,8-diazaspiro[4.5]decane-8-carbonyl)-1H-pyrazole-3-carboxylic Acid]
O=C(O)c1ccn(C(=O)N2CCC(OCc3cc(Cl)cc(Oc4ccc(Cl)cc4)c3)CC2)n1 [Example 27, 1-(4-((3-Chloro-5-(4-chlorophenoxy)benzyl)oxy)piperidine-1-carbonyl)-1H-pyrazole-3-carboxylic Acid]
O=C(O)c1ccn(C(=O)N2CCC3(CCCN3Cc3cc(-n4cccn4)cc(C(F)(F)F)c3)CC2)n1 [Example 32, 1-(1-(3-(1H-pyrazol-1-yl)-5-(Trifluoromethyl)benzyl)-1,8-diazaspiro[4.5]decane-8-carbonyl)-1H-pyrazole-3-carboxylic Acid]
O=C(O)c1ccn(C(=O)N2C[C@H]3C[C@H](OCc4cccc(C5CCCC5)c4)C[C@H]3C2)n1 [Example 34, 1-(trans-5-((3-Cyclopentylbenzyl)oxy)octahydrocyclopenta[c]pyrrole-2-carbonyl)-1H-pyrazole-3-carboxylic Acid]
NC(=O)c1ccn(C(=O)N2CC3CN(Cc4ccc(C5(C(=O)O)CCOCC5)cc4C(F)(F)F)CC3C2)n1 (centres unmarked) [Example 35, 4-(4-((5-(3-carbamoyl-1H-pyrazole-1-carbonyl)hexahydropyrrolo[3,4-c]pyrrol-2(1H)-yl)methyl)-3-(trifluoromethyl)phenyl)tetrahydro-2H-pyran-4-carboxylic acid]
CC(C)(O)CN(Cc1cccc(C(F)(F)F)c1)C1CCN(C(=O)n2ccc(C(N)=O)n2)CC1 [Example 36, 1-(4-((2-Hydroxy-2-methylpropyl)(3-(trifluoromethyl)benzyl)amino)piperidine-1-carbonyl)-1H-pyrazole-3-carboxamide]
CC(C)(O)COc1cccc(CN2CCN(C(=O)n3ccc(C(N)=O)n3)CC2)c1Cl [Example 37, 1-(4-(2-Chloro-3-(2-hydroxy-2-methylpropoxy)benzyl)piperazine-1-carbonyl)-1H-pyrazole-3-carboxamide]
CC(C)(O)COc1cccc(CO[C@H]2C[C@@H]3CN(C(=O)n4ccc(C(=O)O)n4)C[C@@H]3C2)c1Cl [Example 38, 1-(trans-5-((2-Chloro-3-(2-hydroxy-2-methylpropoxy)benzyl)oxy)octahydrocyclopenta[c]pyrrole-2-carbonyl)-1H-pyrazole-3-carboxylic Acid]
O=C(O)c1ccn(C(=O)N2CCC3(CCN(Cc4cc(Cl)ccc4C(F)(F)F)C3)CC2)n1 [Example 43, 1-(2-(5-chloro-2-(trifluoromethyl)-benzyl)-2,8-diazaspiro[4.5]-decane-8-carbonyl)-1H-pyrazole-3-carboxylic acid]
O=C(O)c1ccn(C(=O)N2CCN(Cc3ccc(Oc4ccc(Cl)cc4)cc3)CC2)n1 [Example 45, 1-(4-(4-(4-chlorophenoxy)-benzyl)piperazine-1-carbonyl)-1H-pyrazole-3-carboxylic acid]
O=C(O)c1ccn(C(=O)N2CCN(Cc3cccc(Oc4ccc(F)cc4)c3)CC2)n1 [Example 51, 1-(4-(3-(4-fluorophenoxy)-benzyl)piperazine-1-carbonyl)-1H-pyrazole-3-carboxylic acid]
O=C(O)c1ccn(C(=O)N2C[C@H]3C[C@H](OCc4cc(F)cc(Cl)c4)C[C@H]3C2)n1 [Example 53, 1-(trans-5-((3-chloro-5-fluorobenzyl)oxy)-octahydrocyclopenta-[c]pyrrole-2-carbonyl)-1H-pyrazole-3-carboxylic acid]
CN(Cc1cc(Cl)ccc1C(F)(F)F)CC1CCN(C(=O)n2cc(Cl)c(C(=O)O)n2)CC1 [Example 54, 4-chloro-1-(4-(((5-chloro-2-(trifluoromethyl)-benzyl)(methyl)-amino)-methyl)piperidine-1-carbonyl)-1H-pyrazole-3-carboxylic acid]
O=C(O)c1ccn(C(=O)N2CCN(Cc3cccc(Oc4cc(C(F)(F)F)ccn4)c3)CC2)n1 [Example 57, 1-(4-(3-((4-(trifluoromethyl)-pyridin-2-yl)oxy)benzyl)-piperazine-1-carbonyl)-1H-pyrazole-3-carboxylic acid]
O=C(O)c1ccn(C(=O)N2CCN(Cc3cccc(Oc4ccc(C(F)(F)F)cn4)c3)CC2)n1 [Example 61, 1-(4-(3-((5-(trifluoromethyl)-pyridin-2-yl)oxy)benzyl)-piperazine-1-carbonyl)-1H-pyrazole-3-carboxylic acid]
O=C(O)c1ccn(C(=O)N2CCC3(CCN(Cc4cc(Cl)cc(C(F)(F)F)c4)C3)CC2)n1 [Example 72, 1-(2-(3-chloro-5-(trifluoromethyl)-benzyl)-2,8-diazaspiro[4.5]-decane-8-carbonyl)-1H-pyrazole-3-carboxylic acid]
O=C(O)c1ccn(C(=O)N2CCC3(CCN(Cc4ccc(C(F)(F)F)cc4Cl)C3)CC2)n1 [Example 77, 1-(2-(2-chloro-4-(trifluoromethyl)-benzyl)-2,8-diazaspiro[4.5]-decane-8-carbonyl)-1H-pyrazole-3-carboxylic acid]
CN(Cc1cc(Cl)ccc1C(F)(F)F)C1CCN(C(=O)n2ccc(C(=O)O)n2)CC1 [Example 81, 1-(4-((5-chloro-2-(trifluoromethyl)-benzyl)-(methyl)amino)-piperidine-1-carbonyl)-1H-pyrazole-3-carboxylic acid]
O=C(O)c1ccn(C(=O)N2CCN(Cc3ccc(C(F)(F)F)cc3N3CCCC3)CC2)n1 [Example 83, 1-(4-(2-(pyrrolidin-1-yl)-4-(trifluoromethyl)-benzyl)-piperazine-1-carbonyl)-1H-pyrazole-3-carboxylic acid]
